Assay results taken from EP1263444B1, “USE OF XANTHINE DERIVATIVES FOR PREPARING A MEDICINE FOR PREVENTING AND TREATING OSTEOPOROSIS” (Aventis Pharma S.A., priority 2000, dated 2001).

How the values were obtained:
Format in all cases: in vivo
[1] = system: rate ovariectomisée; experiment: Uterus weight in the ovariectomised rat model; settings: 10 mg/kg po, 4 weeks, weight increase in % of uterus weight of OVX animals receiving solvent only
Description: (§1) L'impact osseux des dérivés de xanthine selon l'invention a été évalué sur un modèle d'ostéopénie, la rate ovariectomisée à l'âge de 3 mois, afin de déterminer son effet sur la masse osseuse, et sur l'activité de formation et de résorption osseuse sur ce modèle. Les animaux sont traités en préventif.
(§2) Sur ce modèle d'ostéopénie l'effet d'un dérivé xanthine est comparé à celui de la PTH • Produit à tester : Le [1-(3-phénylxanthin-1-yl)méthyl] diméthylphosphine oxide • véhicule(s) : méthylcellulose 0,5 % ou sérum physiologique • dose(s) : 10 mg/kg pour le produit. la PTH est administrée à la dose de 10 et 25 µg/kg/j par voie sous cutanée • nombre d'administrations : une fois/jour; 5 jours/semaine pendant 4 semaines • voie d'administration : voie orale pour le produit. La PTH est administrée par voie sous cutanée • volume : 1 ml/kg p o et s c • délai entre l'injection et le sacrifice : 24 heures • nombre d'administrations : 20.
(§3) Des rats femelles âgées de 3 mois et pesant environ 250-300 g sont ovariectomisées sous anesthésie à l'Imalgène 1000, à la dose de 100 mg/kg par voie intrapéritonéale (i.p) et sous un volume de 1 ml/kg. Ils reçoivent également du Nembutal (3 mg/kg i.p. sous un volume de 0,3 ml/kg). Les animaux sont répartis en groupes de 8 rats.
(§4) Après incision latérale, les plans cutanés et musculaires sont sectionnés. L'exérèse de chaque ovaire se fait après ligature de l'oviducte. […]

[2] = system: rate ovariectomisée; experiment: Bone mineral density (DEXA) of the left tibia in the ovariectomised rat osteopenia model, preventive treatment; settings: 10 mg/kg po, once daily, 5 days/week for 4 weeks; (BMD treated - BMD OVX)/(BMD SHAM - BMD OVX) x 100
Description: as §1, §2, §3, §4

[3] = system: rate ovariectomisée; experiment: Serum cholesterol level in the ovariectomised rat model; settings: 10 mg/kg po, 4 weeks, decrease of serum cholesterol in % versus OVX animals receiving solvent only
Description: as §1, §2, §3, §4

- UTERUS Poids % [1]: 10%
- UTERUS Poids % ([1]; listed as Ce produit): aucune activité utérotrophique
Compound: CP(C)(=O)Cn1c(=O)c2[nH]cnc2n(-c2ccccc2)c1=O [Dérivé xanthine, [1-(3-phénylxanthin-1-yl)méthyl] diméthylphosphine oxide]
- OS TIBIA Densité % [2]: 40%
- Cholestérol % [3]: Pas d'effet
- Cholestérol % ([3]; listed as Ce produit): pas d'effet
